Values joined by “and” are separate entries in the source; they are usually repeats but may differ in a detail not shown here. Equal entries are not always repeated. Where two headings read alike, the source gives them in different places.
Tests used:
[1] = T1-weighted MR imaging and T1 analysis of solution phantoms (3T and 14.1T); assay type: physicochemical
Protocol: (§1) 14.1T MR imaging and T1 measurements were performed on a General Electric/Bruker Omega 600WB 14.1T imaging spectrometer fitted with accustar shielded gradient coils at 25° C. For solution phantoms, 50 […], of 60, 40 and 20 μM Gd(III) (DOTA-Gd(III) and Gd(III)-AuNP) in complete cell media were added to flame-sealed 5¾″ Pasteur pipettes and centrifuged at 4.0° C. and 100×g for 5.0 minutes. Capillaries were then placed in a custom-made glass capillary holder and imaged in a 20 mm birdcage coil. For cell phantoms, approximately 1.5×10^6 NIH/3T3 cells were incubated with 20 or 5.0 μM ([Gd(III)]) Gd(III)-AuNP or DOTA-Gd(III) for 24 hours, rinsed two times with DPBS, and harvested with trypsin. After addition of complete media (1.0 mL total volume) cells were added to flame-sealed 5¾″ Pasteur pipettes and centrifuged at 4.0° C. and 100×g for 5.0 minutes. Capillaries were then placed in a custom-made glass capillary holder and imaged in a 10 mm birdcage coil. Spin lattice relaxation times (T1) were measured using a saturation recovery pulse sequence with static TE (10.18 ms) and variable TR (350, 500, 750, 1000, 1500, 2500, 4000, 7500, 15000 ms) values. […]

[2] = data taken from Merbach et al., 37° C., cited from earlier work
NIH/3T3 and HeLa cells = assay: Cell counting and percent cell viability (Guava ViaCount flow cytometry); assay type: cell-based; conditions: any of the conditions tested
Protocol: Cell Counting and Percent Cell Viability Determination Using a Guava EasyCyte Mini Personal Cell Analyzer (PCA) Flow Cytometry System. Cells were counted and percent cell viability determined via a Guava EasyCyte mini personal cell analyzer (Guava Technologies, Hayward, Calif., USA). Specifically, after cell harvesting an aliquot (10 or 20 μL) of the cell suspensions were mixed with Guava ViaCount reagent (final sample volume of 200 μL) and allowed to stain at room temperature for at least 5 minutes (no longer than 20 minutes). Stained samples were then vortexed for 5 seconds, after which cells were counted and percent cell viability determined via manual analysis using the ViaCount software module. For each sample, 1000 events were acquired with dilution factors that were determined based upon optimum machine performance (approximately 50-200 cells/μL).
To determine the efficacy of cellular uptake, NIH/3T3 and HeLa cells were labeled with increasing concentrations of DNA-Gd(III)-AuNPs or DOTA-Gd(III) for different amounts of time. Following agent incubation, cells were rinsed with DPBS, counted and then percent viability was assessed via flow cytometry. Gd(III) and Au content were determined via ICP-MS of acid digested samples. […] At all concentrations the Gd(III) uptake was >50-fold higher for DNA-Gd(III)-AuNPs than DOTA-Gd(III). […]

NIH/3T3 cells = assay: 14.1T T1-weighted MR imaging and T1 analysis of labeled cell pellets; assay type: cell-based; conditions: 24 hours, about 10^6 cells
Protocol: as §1

Q: With `O=C([O-])CN1CCN(CC(=O)[O-])CCN(CC(=O)O)CCN(CC(=O)[O-])CC1.[Gd+3]` [DOTA-Gd(III)] as the compound, how does the “reduction in T1, solution phantoms” value ([1]; 14.1T, 25° C., 60 μM Gd(III), complete cell media) read?
A: 31%

Q: And the “r1 600 MHz (14.1T)” value ([1]; per Gd(III) (ionic), image-based, cell media at 25° C.)?
A: 2.1 mM⁻¹ s⁻¹ and 2.2 mM⁻¹ s⁻¹

Q: And the “r1 60 MHz (1.41T)” value [2]?
A: 3.2^c mM^−1s^−1

Q: And the “r1 60 MHz (1.41T)” value ([2]; listed as unconjugated Gd(III) complex)?
A: 3.2 mM⁻¹ s⁻¹

Q: And the “cell toxicity or cell number variation” value (NIH/3T3 and HeLa cells)?
A: no evidence of cell toxicity or cell number variation

Q: What about the “T1 reduction of labeled cell pellets” value (NIH/3T3 cells; 5.0 μM Gd(III) incubation) of the same compound?
A: no significant difference from control cell pellets

Q: What about the “T1 reduction of labeled cell pellets” value (NIH/3T3 cells; 20 μM Gd(III) incubation) of the same compound?
A: no significant difference from control cell pellets

Source: patent publication US20120269730A1, “Intracellular Delivery of Contrast Agents with Functionalized Nanoparticles” (Northwestern University, priority 2009, published 2012)
